Our source for the EC50 and relative binding (F/Fo) values is PubChem BioAssay AID1920066 (Derbyshire Lab, Chemistry Department, Duke University, 2024).

Assay [1] in a line: competitive binding to P. falciparum Hsp90 – cell lysate, FLECS, GFP-tagged PfHsp90, E. coli lysate, confirmation (AID 1920066). The note with it: liver stage Plasmodium parasite inhibition.
Assay [2] relates to Heat shock protein 90 (Plasmodium falciparum), GFP-tagged. The assay is described as above. The note with it: E. coli lysate PfHsp90-GFP ATP-resin elution, fluorescence; at 500 µM; stronger effect = higher value.

What is called EC50 is the concentration needed to bring the measured effect to its halfway point. `Cc1ccc(C(C)C)c(OCC(=O)Nc2cccc3cnccc23)c1`: the half-maximal effective concentration (EC50) in assay [1] was over 30 µM. Besides, the relative binding (F/Fo) in assay [2] is 2.15.
Compound `CS(=O)(=O)c1cccc(C(=O)Nc2nc3ccccc3nc2N2CCCC2)c1` had an EC50 in assay [1] of over 30 µM. Further, the relative binding (F/Fo) in assay [2] is 2.59.
On to `NC(=O)c1ccc(NC(=O)CN2CSCC2=O)cc1`, for which the EC50 in assay [1] is over 30 µM. For the same compound, in assay [2], the relative binding (F/Fo) was 2.54.
On to `CCOC(=O)NCc1ccc(-n2c(-c3cc(C(C)C)c(O)cc3O)n[nH]c2=S)cc1`, for which, in assay [1], the EC50 came to 1.5 µM. Moreover, the relative binding (F/Fo) in assay [2] was 4.9.
In assay [1], `CN(CC(=O)N1CCCC1)c1ncnc2cc(Cl)ccc12` returned an EC50 of over 30 µM. Moreover, the relative binding (F/Fo) in assay [2] is 2.06.
In assay [1], `Cn1cc(S(=O)(=O)N2CCN(C(=O)c3ccc(F)cc3)CC2)cc1C(N)=O` gave a half-maximal effective concentration (EC50) of over 10 µM. Besides, in assay [2], the relative binding (F/Fo) was 2.06.
In turn, `CC[C@@H](C)Nc1cc(C(=O)NC2CC3CCC(C2)N3c2ccc(C(=O)C3CC3)cn2)c(C)cc1C(N)=O` (some centres undefined) displayed an EC50 in assay [1] of 0.24 µM. The relative binding (F/Fo) in assay [2] is 3.44.
